Laboratory results as given in US20220282217A1, “COMPOSITIONS AND METHODS FOR PREPARING T CELL COMPOSITIONS AND USES THEREOF” (priority 2019, published 2022).
Where a SMILES comes first, the peptide text is derived from it.

The molecules below were run against HLA-A02.01 (Homo sapiens, UniProt P04439, D140Y/D185E/D98H/E176V/E277Q/G131W/G231S/I119V/I121R/I166T/I218V/L300P/L318F/N151K/N90K/P208A/P217A/Q86G/Q94H/R138H/R169H/T345S) (assay: Class I MHC peptide binding affinity (displacement of radiolabeled reference peptide)). Details: BTK C481S peptide; HLA Allele A02.01; read-out: Affinity.
Outline: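 Displacement format in which varying amounts of peptide compete for 2 days with a radiolabeled reference ligand prebound to class I MHC, residual complex-associated label being measured after gel-filtration separation.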

Row | IC50 | SMILES
1 | 4000 nM | CSCC[C@H](NC(=O)[C@@H](N)Cc1ccc(O)cc1)C(=O)N[C@@H](C)C(=O)N[C@@H](CC(N)=O)C(=O)NCC(=O)N[C@@H](CO)C(=O)N[C@@H](CC(C)C)C(=O)N[C@@H](CC(C)C)C(=O)N[C@@H](CC(N)=O)C(=O)O (H-YMANGSLLN-OH; N-terminus and C-terminus assumed)

Same assay, conditions: EGFR T790M peptides; HLA allele A02.01; read-out: Affinity

Row | Kd | SMILES
2 | 3340 nM | CC[C@H](C)[C@H](NC(=O)[C@@H](N)CC(C)C)C(=O)N[C@@H](CCSC)C(=O)N[C@@H](CCC(N)=O)C(=O)N[C@@H](CC(C)C)C(=O)N[C@@H](CCSC)C(=O)N1CCC[C@H]1C(=O)N[C@@H](Cc1ccccc1)C(=O)NCC(=O)O (H-LIMQLMPFG-OH; N-terminus and C-terminus assumed)

Same assay, conditions: Observed Affinity (IC50; (nM)), allele A02.01

Row | SMILES | IC50
3 | CC[C@H](C)[C@H](NC(=O)[C@@H]1CCCN1C(=O)[C@H](CC(C)C)NC(=O)[C@H](CC(C)C)NC(=O)[C@H](CCC(=O)O)NC(=O)[C@@H](N)Cc1ccccc1)C(=O)N1CCC[C@H]1C(=O)N1CCC[C@H]1C(=O)N[C@@H](CC(C)C)C(=O)O (H-FELLPIPPL-OH; N-terminus and C-terminus assumed) | 553 nM
4 | CC[C@H](C)[C@H](NC(=O)[C@H](CCCCN)NC(=O)[C@H](Cc1ccc(O)cc1)NC(=O)[C@@H](NC(=O)[C@@H](NC(=O)[C@H](CC(=O)O)NC(=O)[C@H](CO)NC(=O)[C@H](CCSC)NC(=O)[C@@H](N)C(C)C)[C@@H](C)O)[C@@H](C)O)C(=O)O (H-VMSDTTYKI-OH; N-terminus and C-terminus assumed) | 19.6 nM

Same assay, conditions: allele A02.01; read-out: Observed Affinity (IC50; (nM))

Row | IC50 | SMILES
5 | 19.5 nM | CC[C@H](C)[C@H](N)C(=O)N[C@@H](CC(C)C)C(=O)N[C@H](C(=O)N[C@@H](CCCNC(=N)N)C(=O)N[C@@H](CCCCN)C(=O)N[C@@H](C)C(=O)N[C@@H](CCSC)C(=O)N[C@H](C(=O)N[C@H](C(=O)O)C(C)C)[C@@H](C)O)[C@@H](C)CC (H-ILIRKAMTV-OH; N-terminus and C-terminus assumed)
6 | 3450 nM | CC[C@H](C)[C@H](N)C(=O)N[C@@H](CC(C)C)C(=O)N[C@@H](CCSC)C(=O)N[C@@H](CCC(=O)O)C(=O)N[C@@H](CC(C)C)C(=O)N[C@@H](CCSC)C(=O)N[C@@H](C)C(=O)NCC(=O)NCC(=O)N[C@@H](CC(=O)O)C(=O)O (H-ILMELMAGGD-OH; N-terminus and C-terminus assumed)
7 | 10900 nM | CC[C@H](C)[C@H](NC(=O)[C@@H](N)CC(C)C)C(=O)N[C@H](C(=O)N[C@@H](CO)C(=O)N[C@@H](CCCNC(=N)N)C(=O)N[C@H](C(=O)N[C@@H](CC(C)C)C(=O)N[C@@H](CC(C)C)C(=O)N[C@@H](CC(C)C)C(=O)N[C@H](C(=O)O)C(C)C)[C@@H](C)O)C(C)C (H-LIVSRTLLLV-OH; N-terminus and C-terminus assumed)
8 | 6.7 nM | CC[C@H](C)[C@H](N)C(=O)N[C@@H](CC(C)C)C(=O)N[C@@H](CC(C)C)C(=O)N1CCC[C@H]1C(=O)N[C@@H](CCC(=O)O)C(=O)N[C@@H](CC(=O)O)C(=O)N[C@H](C(=O)N1CCC[C@H]1C(=O)N1CCC[C@H]1C(=O)N[C@@H](CC(C)C)C(=O)O)[C@@H](C)O (H-ILLPEDTPPL-OH; N-terminus and C-terminus assumed)
9 | 1370 nM | CC(C)C[C@H](NC(=O)[C@H](CC(C)C)NC(=O)[C@H](CC(C)C)NC(=O)[C@H](CC(=O)O)NC(=O)[C@H](CS)NC(=O)[C@H](CC(C)C)NC(=O)[C@@H]1CCCN1C(=O)[C@@H](NC(=O)[C@@H](NC(=O)[C@@H](N)CC(N)=O)C(C)C)C(C)C)C(=O)O (H-NVVPLCDLLL-OH; N-terminus and C-terminus assumed)
10 | 6420 nM | CC[C@H](C)[C@H](N)C(=O)N[C@@H](C)C(=O)N[C@@H](CC(N)=O)C(=O)N[C@@H](CC(C)C)C(=O)N[C@@H](CC(C)C)C(=O)NCC(=O)N[C@@H](C)C(=O)N[C@@H](CS)C(=O)N[C@H](C(=O)N[C@H](C(=O)O)[C@@H](C)CC)[C@@H](C)O (H-IANLLGACTI-OH; N-terminus and C-terminus assumed)
11 | 9 nM | CC(C)C[C@H](NC(=O)[C@H](C)N)C(=O)N[C@@H](Cc1c[nH]c2ccccc12)C(=O)N[C@@H](CCC(=O)O)C(=O)N[C@@H](CS)C(=O)N[C@@H](CO)C(=O)N[C@@H](CC(C)C)C(=O)N1CCC[C@H]1C(=O)N[C@@H](CCC(N)=O)C(=O)N[C@@H](C)C(=O)O (H-ALWECSLPQA-OH; N-terminus and C-terminus assumed)
12 | 1130 nM | CC[C@H](C)[C@H](NC(=O)[C@@H]1CCCN1C(=O)[C@H](CCCNC(=N)N)NC(=O)[C@H](Cc1c[nH]c2ccccc12)NC(=O)[C@H](CC(N)=O)NC(=O)[C@H](CCSC)NC(=O)CN)C(=O)N[C@@H](CC(C)C)C(=O)N[C@H](C(=O)O)[C@@H](C)O (H-GMNWRPILT-OH; N-terminus and C-terminus assumed)
13 | 3030 nM | CC(C)C[C@H](NC(=O)[C@H](CC(C)C)NC(=O)[C@H](CC(=O)O)NC(=O)[C@H](CS)NC(=O)[C@H](CC(C)C)NC(=O)[C@@H]1CCCN1C(=O)[C@@H](NC(=O)[C@@H](NC(=O)[C@@H](N)CC(N)=O)C(C)C)C(C)C)C(=O)O (H-NVVPLCDLL-OH; N-terminus and C-terminus assumed)
14 | 413 nM | CC[C@H](C)[C@H](NC(=O)[C@H](Cc1ccccc1)NC(=O)[C@H](CCCNC(=N)N)NC(=O)[C@@H]1CCCN1C(=O)[C@H](CC(C)C)NC(=O)[C@H](CO)NC(=O)[C@H](CCC(N)=O)NC(=O)[C@@H](N)CC(C)C)C(=O)N[C@@H](CC(C)C)C(=O)N[C@@H](CCSC)C(=O)O
15 | 15 nM | CC(C)C[C@H](NC(=O)[C@H](C)N)C(=O)N[C@@H](CC(N)=O)C(=O)N[C@@H](CO)C(=O)N[C@@H](CCC(=O)O)C(=O)N[C@@H](C)C(=O)N[C@@H](CC(C)C)C(=O)N[C@@H](CO)C(=O)N[C@H](C(=O)N[C@H](C(=O)O)C(C)C)C(C)C
16 | 1210 nM | CC(C)C[C@H](NC(=O)[C@H](CCCNC(=N)N)NC(=O)[C@@H](N)C(C)C)C(=O)N[C@@H](CO)C(=O)N[C@@H](CO)C(=O)N[C@@H](CS)C(=O)N[C@H](C(=O)N1CCC[C@H]1C(=O)N[C@H](C(=O)N[C@@H](C)C(=O)O)C(C)C)C(C)C (H-VRLSSCVPVA-OH; N-terminus and C-terminus assumed)
17 | 59 nM | CSCC[C@H](NC(=O)[C@H](Cc1c[nH]cn1)NC(=O)[C@@H](NC(=O)[C@H](CC(C)C)NC(=O)[C@@H](NC(=O)[C@@H]1CCCN1C(=O)[C@H](C)NC(=O)[C@H](CC(C)C)NC(=O)[C@H](C)N)[C@@H](C)O)[C@@H](C)O)C(=O)O (H-ALAPTLTHM-OH; N-terminus and C-terminus assumed)

Continued, molecule first:

Row | SMILES | IC50
18 | CC[C@H](C)[C@H](NC(=O)[C@@H](NC(=O)[C@@H](NC(=O)[C@H](CC(C)C)NC(=O)[C@@H](NC(=O)[C@@H]1CCCN1C(=O)[C@H](CCCNC(=N)N)NC(=O)[C@H](CCC(N)=O)NC(=O)[C@@H](N)CC(N)=O)[C@@H](C)CC)[C@@H](C)O)[C@@H](C)CC)C(=O)O (H-NQRPILTII-OH; N-terminus and C-terminus assumed) | 9610 nM
19 | CC[C@H](C)[C@H](NC(=O)[C@H](Cc1ccc(O)cc1)NC(=O)[C@H](CC(C)C)NC(=O)[C@@H](N)CO)C(=O)N[C@H](C(=O)NCC(=O)N[C@@H](Cc1ccccc1)C(=O)N[C@@H](Cc1ccc(O)cc1)C(=O)NCC(=O)O)C(C)C (H-SLYIVGFYG-OH; N-terminus and C-terminus assumed) | 1060 nM
20 | CSCC[C@H](NC(=O)[C@H](CC(C)C)NC(=O)[C@H](CCCCN)NC(=O)[C@@H](N)CCCCN)C(=O)N[C@@H](CC(C)C)C(=O)N[C@@H](CC(C)C)C(=O)N[C@@H](CCCNC(=N)N)C(=O)N[C@@H](CC(C)C)C(=O)N[C@@H](CC(N)=O)C(=O)N[C@@H](CC(C)C)C(=O)O (H-KKLMLLRLNL-OH; N-terminus and C-terminus assumed) | 289 nM
21 | CSCC[C@H](NC(=O)[C@@H](N)Cc1ccc(O)cc1)C(=O)N[C@@H](C)C(=O)N[C@@H](CC(N)=O)C(=O)NCC(=O)N[C@@H](CO)C(=O)N[C@@H](CC(C)C)C(=O)N[C@@H](CC(C)C)C(=O)N[C@@H](CC(N)=O)C(=O)O (H-YMANGSLLN-OH; N-terminus and C-terminus assumed) | 4440 nM
22 | CC[C@H](C)[C@H](NC(=O)[C@@H](N)CC(C)C)C(=O)N[C@@H](CCSC)C(=O)N[C@@H](CCC(N)=O)C(=O)N[C@@H](CC(C)C)C(=O)N[C@@H](CCSC)C(=O)N1CCC[C@H]1C(=O)N[C@@H](Cc1ccccc1)C(=O)NCC(=O)O (H-LIMQLMPFG-OH; N-terminus and C-terminus assumed) | 3510 nM
23 | CC[C@H](C)[C@H](NC(=O)[C@@H](N)CC(C)C)C(=O)N[C@H](C(=O)N[C@@H](CO)C(=O)N[C@@H](CCCNC(=N)N)C(=O)N[C@H](C(=O)N[C@@H](CC(C)C)C(=O)N[C@@H](CC(C)C)C(=O)N[C@@H](CC(C)C)C(=O)O)[C@@H](C)O)C(C)C | 173 nM
24 | CC[C@H](C)[C@H](NC(=O)[C@@H](N)Cc1ccccc1)C(=O)N[C@@H](CC(C)C)C(=O)N[C@@H](CCSC)C(=O)N[C@@H](CCC(=O)O)C(=O)N[C@@H](CC(C)C)C(=O)N[C@@H](CCSC)C(=O)N[C@@H](C)C(=O)NCC(=O)NCC(=O)O (H-FILMELMAGG-OH; N-terminus and C-terminus assumed) | 1580 nM
25 | CC[C@H](C)[C@H](NC(=O)[C@H](CC(C)C)NC(=O)[C@@H](N)CS)C(=O)N[C@H](C(=O)N[C@@H](CO)C(=O)N[C@@H](CCCNC(=N)N)C(=O)N[C@H](C(=O)N[C@@H](CC(C)C)C(=O)N[C@@H](CC(C)C)C(=O)N[C@@H](CC(C)C)C(=O)O)[C@@H](C)O)C(C)C | 2010 nM
26 | CSCC[C@H](NC(=O)[C@H](CCCCN)NC(=O)CNC(=O)[C@H](CC(N)=O)NC(=O)[C@H](CCC(N)=O)NC(=O)[C@@H](N)Cc1ccccc1)C(=O)N[C@@H](C)C(=O)N[C@@H](CC(C)C)C(=O)N[C@@H](CO)C(=O)O [FQNGKMALS] (H-FQNGKMALS-OH; N-terminus and C-terminus assumed) | 3280 nM
27 | CC(C)C[C@H](NC(=O)[C@H](C)NC(=O)[C@H](CC(C)C)NC(=O)[C@H](CC(C)C)NC(=O)[C@@H](N)Cc1ccccc1)C(=O)N[C@@H](Cc1c[nH]c2ccccc12)C(=O)N[C@@H](CCC(=O)O)C(=O)N[C@@H](CS)C(=O)N[C@@H](CO)C(=O)O (H-FLLALWECS-OH; N-terminus and C-terminus assumed) | 93.2 nM
28 | CC[C@H](C)[C@H](NC(=O)[C@H](CCC(N)=O)NC(=O)[C@@H](N)CO)C(=O)N[C@@H](CCSC)C(=O)N[C@@H](CO)C(=O)N[C@@H](CC(C)C)C(=O)N[C@@H](Cc1c[nH]c2ccccc12)C(=O)NCC(=O)N[C@@H](CC(C)C)C(=O)O | 62 nM
